Several values for one entry are separate records, joined by “and”; a condition that tells them apart may be missing. Identical values can stand only once.

Experimental findings from PubChem BioAssay AID2060615 (Molecular Pharmacology Branch, DTP, NCI, 2025) are described below.

The test system of this assay is 496974-208-R-J2-PDC complex spheroids, growth % test/control. Briefly: Anticancer human tumor 496974-208-R-J2-PDC patient-derived pancreatic carcinoma cell line growth inhibition [CLK]. To be noted: for viability, T/C: stronger effect = lower value. The source says:
A high-throughput screen of multi-cell type tumor spheroids was designed to identify active combinations of […] and targeted small molecules. Complex spheroids include a stromal component modeled by human endothelial cells (HUVEC) and fibroblasts modeled by human mesenchymal stem cells (MSCs). The concentration ranges selected for each drug and investigational agent were based upon clinically achievable concentrations if the clinical Cmax of the agent was known.
Compounds. The drugs and investigational agents: cirtuvivint (SM08502; NSC835563), CC-671 (NSC850746), vemurafenib (NSC761431), tapotoclax (NSC804041), sotorasib (NSC818433), adagrasib (NSC831453), MRTX-1133 (NSC836407), BAY2416964 (NSC825713), copanlisib (NSC816437), inavolisib (NSC800729), abemaciclib (NSC768073), osimertinib (NSC779217), entinostat (NSC756642), eltanexor (KPT-8602, NSC794443), venetoclax (NSC766270), ceralasertib (NSC777638), bortezomib (NSC756655), olaparib (NSC753686), talazoparib (NSC767125), alisertib (NSC759677), peposertib (NSC802822), gemcitabine (NSC613327), 5-fluorouracil (NSC19893), SN-38 (NSC673596), oxaliplatin (NSC266046), paclitaxel (NSC125973), and doxorubicin (NSC123127), were obtained from the National Cancer Institute (NCI) Developmental Therapeutics Program Chemical Repository. The FDA-approved anticancer drug set is available from the Developmental Therapeutics Program at https://dtp.cancer.gov/organization/dscb/obtaining/available plates.htm. […] The stock solutions were prepared in dimethyl sulfoxide (DMSO, Sigma-Aldrich, St. Louis, MO, cat. D2650), except for the platinum complexes which were prepared in saline (Quality Biological, Gaithersburg, MD, cat. 114-055-101), at 800-fold the tested concentration and stored at -70 degrees C prior to their use. All drugs and investigational agents were tested over a range starting from a high concentration at or near the clinical Cmax and decreasing in half-log increments. If the clinical Cmax for an agent had not been determined, the highest concentration tested was 10 microM.
Cell Culture. All cells were maintained in an incubator at 37 degrees C and 5% CO2 with 95% humidity. The PDC lines were cultured according to standard operating procedures established by the NCI PDMR. Briefly, all PDCs were thawed and cultured in Matrigel-coated flasks prepared with a working solution of 1X Ham's F-12 nutrient mix, without supplementation (Invitrogen, Waltham, MA, cat. 11765054), 100 U/mL penicillin-streptomycin (Invitrogen, cat. 15140122), and 2.5% Matrigel (Corning Inc., Corning, NY, cat. 354248) for the first three passages. The 947758-054-R-J2-PDC line was cultured in 6B/Colon 1A media, which includes advanced DMEM/F-12 (Thermo Fisher Scientific, cat. 12634028), 10 mM HEPES (Thermo Fisher Scientific, cat. 15630080), 1X GlutaMAX supplement (Thermo Fisher Scientific, cat. 35050061), 0.1 mg/mL primocin (InvivoGen, cat. ant-pm-2), 10% defined fetal bovine serum, heat inactivated (HyClone Laboratories Inc., cat. SH30070.03HI), 1.25 mM N-Acetyl-L-cysteine (Sigma-Aldrich, cat. A9165), 10 mM nicotinamide (Sigma-Aldrich, cat. N0636), 1X B-27 supplement (Thermo Fisher Scientific, cat. 17504044), 1X N-2 supplement (Thermo Fisher Scientific, cat. 17502048), and 10 microM Y-27632 dihydrochloride (Tocris Bioscience, cat. 1254). The 876862-298-R-J1-PDC was cultured in 6E media, which includes all 6B/Colon 1A media components plus 50% L-WRN conditioned media (ATCC, cat. CRL-3276), 50 ng/mL recombinant human EGF recombinant protein (hEGF; Thermo Fisher Scientific, cat. PHG0311), 10 ng/mL recombinant human fibroblast growth factor 10 (hGFG-10; PeproTech, cat. 100-26), 1 ng/mL recombinant human fibroblast growth factor 2 (hFGF-2; PeproTech, cat. 100-18B), and 1 µM prostaglandin E2 (PGE2; Tocris, cat. 2296). The 227483-062-R1-J1-PDC line was cultured in Panc media, containing all 6E components except hFGF-2, with the addition of 500 nM SB-431542 (Selleckchem, cat. S1067) and 10 nM gastrin (Tocris, cat. 3006). […]
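Note: spheroids exposed to the drugs for 7 days before readout.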
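Throughout, for viability, T/C: 100% = DMSO vehicle control wells.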

In general, viability, T/C refers to the ratio of treated to control. Broadly, the IC50 is the concentration that inhibits the measured activity by half. For the compound `C=CC(=O)Nc1cc(Nc2nccc(-c3cn(C)c4ccccc34)n2)c(OC)cc1N(C)CCN(C)C`, the viability, T/C was 102% and 103% (compound 0.000949 µM); 99.3% and 105% (compound 0.003 µM); 86% and 93.1% (compound 0.00949 µM); 85.4% and 94.9% (compound 0.03 µM); 98.1% and 88.5% (compound 0.0949 µM); 70.9% and 70.3% (compound 0.3 µM). For the same compound, where the note is “curve of compound”, the IC50 was greater than 0.3 µM.
For `CC(C)CC(NC(=O)C(Cc1ccccc1)NC(=O)c1cnccn1)B(O)O` (stereo not given), the viability, T/C is, setting by setting: (compound 0.000949 µM) 99.9%; (compound 0.003 µM) 63.8%; (compound 0.00949 µM) 0.44%; (compound 0.03 µM) 0.67%; (compound 0.0949 µM) 0.24%; (compound 0.3 µM) 0.27%. Besides, the 50% inhibitory concentration (IC50) (curve of compound) was found to be 0.00385 µM.
`CCCS(=O)(=O)Nc1ccc(F)c(C(=O)c2c[nH]c3ncc(-c4ccc(Cl)cc4)cc23)c1F`: the viability, T/C is, setting by setting: (compound 0.0316 µM) 108% and 106%; (compound 0.1 µM) 92.2% and 91.8%; (compound 0.316 µM) 100% and 95.3%; (compound 1 µM) 108% and 93.8%; (compound 3.16 µM) 87.8% and 93.4%; (compound 10 µM) 36.3% and 21.7%. Further, the IC50 (curve of compound) is 7.38 µM and 6.35 µM.
On to `CCN1CCN(Cc2ccc(Nc3ncc(F)c(-c4cc(F)c5nc(C)n(C(C)C)c5c4)n3)nc2)CC1`, for which the viability, T/C (compound 0.00316 µM) is 102% and 112%; the viability, T/C (compound 0.01 µM) is 93.9% and 90.8%; the viability, T/C (compound 0.0316 µM) was 87.1% and 90.3%; the viability, T/C (compound 0.1 µM) is 82.4% and 97.8%; the viability, T/C (compound 0.316 µM) is 90.3% and 92.8%; the viability, T/C (compound 1 µM) is 96.5% and 103%. Moreover, under “curve of compound”, the IC50 is greater than 1 µM.
As to `CCc1c2c(nc3ccc(O)cc13)-c1cc3c(c(=O)n1C2)COC(=O)[C@]3(O)CC`, the viability, T/C reads like this: (compound 0.00316 µM) 67.2% and 61.3%; (compound 0.01 µM) 32.4% and 47.9%; (compound 0.0316 µM) 25.7% and 35.4%; (compound 0.1 µM) 17.4% and 23.2%; (compound 0.316 µM) 9.88% and 12.9%; (compound 1 µM) 2.2% and 3.2%. Besides, the IC50 (curve of compound) is 0.00604 µM and 0.00848 µM.
For `CN1CCN(c2cc(C(=O)Nc3cc4cc(-c5cnn(C)c5)ccc4cn3)ccn2)CC1`, the viability, T/C was 103% [middle of 12 runs] (compound 0.0316 µM); 87.9% [middle of 12 runs] (compound 0.1 µM); 6.96% [middle of 11 runs] (compound 0.316 µM); 1.74% [middle of 12 runs] (compound 1 µM); 0.79% [middle of 12 runs] (compound 3.16 µM); 0.34% [middle of 8 runs] (compound 10 µM). For the same compound, under “compound alone, run of 09/18/2023”, the 50% inhibitory concentration (IC50) was 171 nM [middle of 11 runs].
With `CNC(=O)c1ccc(Nc2nc(OC3CCCC3)c3c(-c4ccc5nc(C)oc5c4)c[nH]c3n2)c(OC)c1`, the viability, T/C was 97.8% [middle of 7 runs] (compound 0.0316 µM); 85.7% [middle of 10 runs] (compound 0.1 µM); 78.1% [middle of 10 runs] (compound 0.316 µM); 70.6% [middle of 10 runs] (compound 1 µM); 62.4% [middle of 10 runs] (compound 3.16 µM); 57.3% [middle of 10 runs] (compound 10 µM). Further, the IC50 (compound alone, run of 09/19/2023) is greater than 10 µM.
Turning to `COc1c(OCCCN2CCOCC2)ccc2c3n(c(=NC(=O)c4cnc(N)nc4)nc12)CCN3`, the viability, T/C was 93.4% and 97.4% (compound 0.00316 µM); 64.2% and 60% (compound 0.01 µM); 32.8% and 28.6% (compound 0.0316 µM); 9.98% and 14.7% (compound 0.1 µM); 7.88% and 8.03% (compound 0.316 µM); 3.01% and 3.54% (compound 1 µM). Where the note is “curve of compound”, the half-maximal inhibitory concentration (IC50) is 0.0167 µM and 0.0144 µM.
For `Cn1ncnc1[C@H]1c2n[nH]c(=O)c3cc(F)cc(c23)N[C@@H]1c1ccc(F)cc1`, the viability, T/C is, setting by setting: (compound 0.000316 µM) 109% and 106%; (compound 0.001 µM) 103% and 99.5%; (compound 0.00316 µM) 90.4% and 101%; (compound 0.01 µM) 95.2% and 99.5%; (compound 0.0316 µM) 93.3% and 95.1%; (compound 0.1 µM) 86% and 104%. For the same compound, the IC50 (curve of compound) is greater than 0.1 µM.
Take `NC(=O)C(=Cn1cnc(-c2cc(C(F)(F)F)cc(C(F)(F)F)c2)n1)c1cncnc1`: the viability, T/C was 97.8% and 78.4% (compound 0.00949 µM); 71.3% and 68.7% (compound 0.03 µM); 57.4% and 59.5% (compound 0.0949 µM); 29.5% and 32% (compound 0.3 µM); 16% and 23.8% (compound 0.949 µM); 11.6% and 13.4% (compound 3 µM). Also, the IC50 (curve of compound) was 0.106 µM and 0.135 µM.
